Results taken from patent US20250114345A1, “COMPOUNDS AND COMPOSITIONS AS CBP/P300 DEGRADERS AND USES THEREOF” (Oncopia Therapeutics, Inc. d/b/a/ SK Life Science Labs, priority 2023, published 2025).

Biological target: T1, p300 (Homo sapiens, UniProt Q09472)
T1 construct: host or cells: A549 P300 HiBit cells
Assay: P300 degradation, HiBit technology in A549 P300 HiBit cells (2 h)
Assay type: cell-based
Conditions: 2 hrs post treatment; for Dmax: A549, A549 P300 HiBit cells; for DC50: A549 P300 HiBit cells
Description: p300 and CBP degradation potency and Dmax were determined using in cell western (ICW) assay technology in H1299 cells or HiBit technology in A549 HiBit cells.
A549 P300 HiBit and A549 CBP HiBit cells were plated in separate 384-well, TC treated, white-opaque, flat-bottomed microplate. Cells were plated at a cell density of 0.2×10^4 cells per well in assay media comprised of F-12K, 10% heat inactivated FBS, and 1% penicillin/streptomycin. Assay microplates containing HiBit cells were placed in a 37° C., 5% CO2, tissue culture incubator and left to equilibrate overnight. The next day cells were treated with serial dilutions of test compound made up of 10 mM stock solutions in DMSO. 384-Well plates containing treated cells were then placed back into a 37° C., 5% CO2, tissue culture incubator. Assay microplates containing A549 P300 HiBit cells were incubated for 2 hrs post treatment before P300 destruction was assessed, while microplates containing A549 CBP HiBit cells were incubated for 24 hrs post treatment before CBP destruction was determined. On the day of each assay time point, microplates were removed from the tissue culture incubator and prepared HiBit Lytic detection buffer (Promega, cat #N3O40) was added to each plate. Plates were covered with aluminum foil and incubated for ten minutes at room temperature on an orbital shaker. After incubation, luminescent signal of each plate was measured using the Envision instrument (Perkin Elmer).

T1 sequence (Q09472 whole entry): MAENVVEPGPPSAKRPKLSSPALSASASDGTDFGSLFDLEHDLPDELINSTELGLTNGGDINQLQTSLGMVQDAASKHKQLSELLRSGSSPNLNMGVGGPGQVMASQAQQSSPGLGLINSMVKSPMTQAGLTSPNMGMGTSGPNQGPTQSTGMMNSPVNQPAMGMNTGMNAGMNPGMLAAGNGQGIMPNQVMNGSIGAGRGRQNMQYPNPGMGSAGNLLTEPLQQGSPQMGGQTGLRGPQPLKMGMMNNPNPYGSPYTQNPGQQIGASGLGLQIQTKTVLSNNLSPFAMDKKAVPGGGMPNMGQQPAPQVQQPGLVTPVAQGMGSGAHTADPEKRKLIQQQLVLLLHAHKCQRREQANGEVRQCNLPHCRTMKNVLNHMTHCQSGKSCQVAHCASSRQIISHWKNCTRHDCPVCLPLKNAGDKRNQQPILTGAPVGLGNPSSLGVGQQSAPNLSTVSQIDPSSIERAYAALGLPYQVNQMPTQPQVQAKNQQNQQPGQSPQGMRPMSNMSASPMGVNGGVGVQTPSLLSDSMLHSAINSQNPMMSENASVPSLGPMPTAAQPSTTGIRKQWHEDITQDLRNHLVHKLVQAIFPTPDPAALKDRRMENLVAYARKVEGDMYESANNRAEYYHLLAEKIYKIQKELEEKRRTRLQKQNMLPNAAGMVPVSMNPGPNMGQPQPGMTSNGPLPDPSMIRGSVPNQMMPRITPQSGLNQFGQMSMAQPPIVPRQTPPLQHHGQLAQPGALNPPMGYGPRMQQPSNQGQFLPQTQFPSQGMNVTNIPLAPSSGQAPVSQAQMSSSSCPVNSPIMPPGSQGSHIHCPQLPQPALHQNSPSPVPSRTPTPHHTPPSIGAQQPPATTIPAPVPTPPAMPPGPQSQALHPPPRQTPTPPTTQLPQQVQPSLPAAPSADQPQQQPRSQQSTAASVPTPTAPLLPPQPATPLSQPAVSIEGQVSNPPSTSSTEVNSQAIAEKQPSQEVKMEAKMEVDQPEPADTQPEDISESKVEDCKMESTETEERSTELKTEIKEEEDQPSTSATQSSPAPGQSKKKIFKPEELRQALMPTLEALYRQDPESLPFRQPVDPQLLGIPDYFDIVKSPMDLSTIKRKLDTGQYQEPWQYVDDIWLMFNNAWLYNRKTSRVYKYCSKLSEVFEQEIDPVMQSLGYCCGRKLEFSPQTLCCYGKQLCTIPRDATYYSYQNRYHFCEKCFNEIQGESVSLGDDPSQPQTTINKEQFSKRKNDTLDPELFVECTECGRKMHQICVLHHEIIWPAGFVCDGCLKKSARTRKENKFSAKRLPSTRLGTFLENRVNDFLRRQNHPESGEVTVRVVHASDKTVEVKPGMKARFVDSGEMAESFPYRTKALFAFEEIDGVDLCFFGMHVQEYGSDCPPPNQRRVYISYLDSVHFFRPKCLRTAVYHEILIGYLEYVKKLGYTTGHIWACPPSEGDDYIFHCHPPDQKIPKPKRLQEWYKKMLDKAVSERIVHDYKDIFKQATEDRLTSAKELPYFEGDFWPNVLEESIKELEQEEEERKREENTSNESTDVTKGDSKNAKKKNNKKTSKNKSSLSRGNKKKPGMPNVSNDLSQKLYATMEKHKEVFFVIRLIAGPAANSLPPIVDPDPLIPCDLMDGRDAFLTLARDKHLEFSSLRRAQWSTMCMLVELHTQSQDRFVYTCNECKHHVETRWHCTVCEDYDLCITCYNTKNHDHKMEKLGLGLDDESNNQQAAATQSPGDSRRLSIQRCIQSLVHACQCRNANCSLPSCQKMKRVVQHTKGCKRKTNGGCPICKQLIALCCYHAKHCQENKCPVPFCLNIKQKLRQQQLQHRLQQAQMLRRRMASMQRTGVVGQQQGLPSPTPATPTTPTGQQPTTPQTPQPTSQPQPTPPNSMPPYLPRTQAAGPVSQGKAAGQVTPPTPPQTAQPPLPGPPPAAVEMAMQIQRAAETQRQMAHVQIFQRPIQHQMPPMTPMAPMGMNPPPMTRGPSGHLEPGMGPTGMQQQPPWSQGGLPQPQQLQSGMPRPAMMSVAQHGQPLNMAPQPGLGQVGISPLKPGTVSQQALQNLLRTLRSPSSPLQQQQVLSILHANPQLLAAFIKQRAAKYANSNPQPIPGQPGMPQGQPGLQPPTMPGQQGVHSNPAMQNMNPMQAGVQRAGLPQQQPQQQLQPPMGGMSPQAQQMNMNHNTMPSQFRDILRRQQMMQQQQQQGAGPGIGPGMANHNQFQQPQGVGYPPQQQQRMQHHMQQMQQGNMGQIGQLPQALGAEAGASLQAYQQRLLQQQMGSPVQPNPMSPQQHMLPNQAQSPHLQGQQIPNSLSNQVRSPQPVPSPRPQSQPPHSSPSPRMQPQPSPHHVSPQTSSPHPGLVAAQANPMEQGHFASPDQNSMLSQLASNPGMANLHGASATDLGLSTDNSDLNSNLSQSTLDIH

| SMILES | Dmax [%] | DC50 [nM] |
| --- | --- | --- |
| [2H]C([2H])([2H])N(c1cnc(-c2cnc(C(=O)NCC#Cc3ccc4occ(C5CCC(=O)NC5=O)c4c3)c(C)c2)nc1)c1cc(C(C)C)c2c(c1)n(C)c(=O)n2C (stereo not shown) [Example A65, N-(3-(3-(2,6-dioxopiperidin-3-yl)benzofuran-5-yl)prop-2-yn-1-yl)-5-(5-((7-isopropyl-1,3-dimethyl-2-oxo-2,3-dihydro-1H-benzo [d]imidazol-5-yl)(methyl-d3)amino)pyrimidin-2-yl)-3-methylpicolinamide] | > 80 | 1 to 9.9 |
| CN1C2CCC1CN(c1nc(-c3cccc4cc(-c5ccc(C(=O)NCC#Cc6ccc7occ(C8CCC(=O)NC8=O)c7c6)nc5)ncc34)cc3c1n(C)c(=O)n3C)C2 (stereo not shown) [Example A67, 5-(8-(1,3-dimethyl-4-(8-methyl-3,8-diazabicyclo[3.2.1]octan-3-yl)-2-oxo-2,3-dihydro-1H-imidazo [4,5-c]pyridin-6-yl)isoquinolin-3-yl)-N-(3-(3-(2,6-dioxopiperidin-3-yl)benzofuran-5-yl)prop-2-yn-1-yl)picolinamide] | 60 to 79 | 1 to 9.9 |
| Cn1c(=O)n(C)c2cc(-c3cccc4cc(-c5cnc(C(=O)NCC#Cc6ccc7occ(C8CCC(=O)NC8=O)c7c6)c(Cl)c5)ncc34)ccc21 (stereo not shown) [Example A73, 3-chloro-5-(8-(1,3-dimethyl-2-oxo-2,3-dihydro-1H-benzo[d]imidazol-5-yl)isoquinolin-3-yl)-N-(3-(3-(2,6-dioxopiperidin-3-yl)benzofuran-5-yl)prop-2-yn-1-yl)picolinamide] | > 80 | 1 to 9.9 |
| CCn1c(=O)n(C)c2c(C)cc(N3CCOc4nc(-c5ccc(C(=O)NCC#Cc6ccc7occ(C8CCC(=O)NC8=O)c7c6)nc5)ncc43)cc21 (stereo not shown) [Example A77, N-(3-(3-(2,6-dioxopiperidin-3-yl)benzofuran-5-yl)prop-2-yn-1-yl)-5-(5-(3-ethyl-1,7-dimethyl-2-oxo-2,3-dihydro-1H-benzo[d]imidazol-5-yl)-6,7-dihydro-5H-pyrimido[4,5-b][1,4]oxazin-2-yl)picolinamide] | 60 to 79 | 1 to 9.9 |
| Cn1c(=O)n(C)c2c(C3CCOCC3)nc(N3CCCc4nc(-c5ccc(C(=O)NCC#Cc6ccc7occ(C8CCC(=O)NC8=O)c7c6)nc5)ncc43)cc21 (stereo not shown) [Example A78, 5-(5-(1,3-dimethyl-2-oxo-4-(tetrahydro-2H-pyran-4-yl)-2,3-dihydro-1H-imidazo[4,5-c]pyridin-6-yl)-5,6,7,8-tetrahydro-pyrido[3,2-d]pyrimidin-2-yl)-N-(3-(3-(2,6-dioxopiperidin-3-yl)benzofuran-5-yl)prop-2-yn-1-yl)picolinamide] | < 20 | > 1000 |
| Cc1cc(-c2ncc(N(C)c3cc(N4CCOCC4)c4oc(=O)n(C)c4c3)cn2)cnc1C(=O)NCC#Cc1ccc2occ(C3CCC(=O)NC3=O)c2c1 (stereo not shown) [Example A80, N-(3-(3-(2,6-dioxo-piperidin-3-yl)benzofuran-5-yl)prop-2-yn-1-yl)-3-methyl-5-(5-(methyl (3-methyl-7-morpholino-2-oxo-2,3-dihydrobenzo [d]oxazol-5-yl)amino)pyrimidin-2-yl)picolinamide] | < 20 | > 1000 |
| [2H]C([2H])([2H])N(c1cnc(-c2cnc(C(=O)NCC#Cc3ccc4occ(C5CCC(=O)NC5=O)c4c3)c(C)c2)nc1)c1cc(C2CCOCC2)c2c(c1)n(C)c(=O)n2C (stereo not shown) [Example A82, 5-(5-((1,3-dimethyl-2-oxo-7-(tetrahydro-2H-pyran-4-yl)-2,3-dihydro-1H-benzo [d]imidazol-5-yl) (methyl-d3)amino)pyrimidin-2-yl)-N-(3-(3-(2,6-dioxo-piperidin-3-yl)benzofuran-5-yl)prop-2-yn-1-yl)-3-methylpicolinamide] | > 80 | 1 to 9.9 |
| Cc1cc(-c2ncc(N(C)c3cc(C4CCOCC4)c4c(c3)n(C)c(=O)n4C)nn2)cnc1C(=O)NCC#Cc1ccc2occ(C3CCC(=O)NC3=O)c2c1 (stereo not shown) [Example A90, 5-(6-((1,3-dimethyl-2-oxo-7-(tetrahydro-2H-pyran-4-yl)-2,3-dihydro-1H-benzo[d]imidazol-5-yl)(methyl)amino)-1,2,4-triazin-3-yl)-N-(3-(3-(2,6-dioxopiperidin-3-yl)benzofuran-5-yl)prop-2-yn-1-yl)-3-methylpicolinamide] | < 20 | 1 to 9.9 |

More lines, now with the values ahead:

| Dmax [%] | DC50 [nM] | SMILES |
| --- | --- | --- |
| > 80 | 1 to 9.9 | CC(C)c1cc(-c2ncc(N(C)c3cc(C(C)C)c4c(c3)n(C)c(=O)n4C)cn2)cnc1C(=O)NCC#Cc1ccc2occ(C3CCC(=O)NC3=O)c2c1 (stereo not shown) [Example A71, N-(3-(3-(2,6-dioxopiperidin-3-yl)benzofuran-5-yl)prop-2-yn-1-yl)-3-isopropyl-5-(5-((7-isopropyl-1,3-dimethyl-2-oxo-2,3-dihydro-1H-benzo[d]imidazol-5-yl)(methyl)amino)pyrimidin-2-yl)picolinamide] |
| < 20 | > 1000 | Cc1cc(-c2ncc(N(C)c3cc4c(c(C(C)C)n3)n(C)c(=O)n4C)cn2)cnc1C(=O)NCC#Cc1ccc2occ(C3CCC(=O)NC3=O)c2c1 (stereo not shown) [Example A74, N-(3-(3-(2,6-dioxopiperidin-3-yl)benzofuran-5-yl)prop-2-yn-1-yl)-5-(5-((4-isopropyl-1,3-dimethyl-2-oxo-2,3-dihydro-1H-imidazo[4,5-c]pyridin-6-yl)(methyl)amino)pyrimidin-2-yl)-3-methylpicolinamide] |
| < 20 | > 1000 | CC(C)c1nc(N2CCCc3nc(-c4ccc(C(=O)NCC#Cc5ccc6occ(C7CCC(=O)NC7=O)c6c5)nc4)ncc32)cc2c1n(C)c(=O)n2C (stereo not shown) [Example A76, N-(3-(3-(2,6-dioxopiperidin-3-yl)benzofuran-5-yl)prop-2-yn-1-yl)-5-(5-(4-isopropyl-1,3-dimethyl-2-oxo-2,3-dihydro-1H-imidazo[4,5-c]pyridin-6-yl)-5,6,7,8-tetrahydropyrido[3,2-d]pyrimidin-2-yl)picolinamide] |
| < 20 | > 1000 | CC(C)c1cc(C(F)(F)c2ccc(-c3ccc(C(=O)NCC#Cc4ccc5occ(C6CCC(=O)NC6=O)c5c4)nc3)nc2)cc2c1n(C)c(=O)n2C (stereo not shown) [Example A81, 5-(difluoro(7-isopropyl-1,3-dimethyl-2-oxo-2,3-dihydro-1H-benzo[d]imidazol-5-yl)methyl)-N-(3-(3-(2,6-dioxopiperidin-3-yl)benzofuran-5-yl)prop-2-yn-1-yl)-[2,3′-bipyridine]-6′-carboxamide] |
| > 80 | 1 to 9.9 | CC(C)c1cc(C2CC(C)(C)Oc3cc(-c4ccc(C(=O)NCC#Cc5ccc6occ(C7CCC(=O)NC7=O)c6c5)nc4)c(F)cc32)cc2c1n(C)c(=O)n2C (stereo not shown) [Example A85, N-(3-(3-(2,6-dioxo-piperidin-3-yl)benzofuran-5-yl)prop-2-yn-1-yl)-5-(6-fluoro-4-(7-isopropyl-1,3-dimethyl-2-oxo-2,3-dihydro-1H-benzo [d]imidazol-5-yl)-2,2-dimethylchroman-7-yl)picolinamide] |
| < 20 | 10 to 99 | Cc1cc(-c2ncc3c(n2)OCCN3c2cc3c(c(N4CCOCC4)n2)n(C)c(=O)n3C)cnc1C(=O)NCC#Cc1ccc2occ(C3CCC(=O)NC3=O)c2c1 (stereo not shown) [Example A91, 5-(5-(1,3-dimethyl-4-morpholino-2-oxo-2,3-dihydro-1H-imidazo[4,5-c]pyridin-6-yl)-6,7-dihydro-5H-pyrimido[4,5-b][1,4]oxazin-2-yl)-N-(3-(3-(2,6-dioxopiperidin-3-yl)benzofuran-5-yl)prop-2-yn-1-yl)-3-methylpicolinamide] |
